Experimental data as given in patent US20180172712A1, “METHODS AND MATERIALS FOR ASSESSING HYDROGEN PEROXIDE ACCUMULATION IN CELLS” (Mayo Foundation for Medical Education and Research, priority 2015, published 2018).
Read-outs that look alike come from different tables or passages of the source. One block for each molecule: values may come before it.

Experiments:
[1] = tested on: OCIMY5-Vector and OCIMY-CRBN cells; test: MTT assay in OCIMY5-Vector and OCIMY-CRBN cells; conditions: 72 hours
Description: Cell viability was assessed by 3-(4,5-dimethylthiazol-2-yl)-2,5-diphenyltetrazolium bromide (MTT) colorimetric assay. […] The data were normalized to the DMSO-treated group. Each experimental condition was performed in triplicate and repeated at least once. Thalidomide was obtained from Sigma, and pomalidomide was obtained from Selleckchem.
(§1) Human CRBN cDNA was obtained from Thermo Scientific and subcloned into a lentiviral expression vector, pCDH-CMV-MCS-EF1-copGFP (System Bioscience). Lentivirus harboring control vector and CRBN cDNA constructs were prepared and used to infect the multiple myeloma (MM) cell line OCIMY5. Infection efficiency was measured by FACScan analysis of GFP expression 3 days after infection. The cells were sorted for GFP expression 14 days after infection.

myeloma cells [2] = test: MTT assay of dehydroascorbic acid in myeloma cells; assay type: cell-based, human; conditions: high concentrations
Excerpt: (§2) The data were normalized to the DMSO-treated group.

IKZF1 and IKZF3 [3] = conditions: OPM2-NT vs OPM2-shCRBN; H2O2 25 or 50 μM, 3 hours
Excerpt: (§3) Proteins were transferred to polyvinylidene fluoride membranes (Bio-Rad).

IKZF1 and IKZF3 [4] = test: Western blot of IKZF1 and IKZF3 in OCIMY-5 cells overexpressing CRBN; assay type: cell-based, human; conditions: lenalidomide 10 μM or H2O2 25 or 50 μM, within 3 hours
Description: as §3, §1

RPMI-8226 cells = test: MTT assay in RPMI-8226 cells; assay type: cell-based, human; conditions: RPMI-8226, 3 days
Excerpt: as §2

IgL-λ dimers = test: IgL dimerization immunoblot under nonreducing conditions in MM.1S cells; assay type: cell-based, human; conditions: 3 hours, lenalidomide 10 μM or H2O2 25 μM
Excerpt: as §3

MM.1S cells = test: MTT assay in MM.1S cells; assay type: cell-based, human; conditions: 3 days
Excerpt: as §2

IKZF1 and IKZF3 [5] = test: Western blot of IKZF1 and IKZF3 in MM.1S cells; assay type: cell-based, human; conditions: for IKZF1 and IKZF3 degradation: MM.1S cells, 3 hours (lenalidomide 10 μM, H2O2 100 μM, PX12 20 μM)
Excerpt: as §3

[6] = tested on: Myeloma cell line harboring CRBN or without CRBN; test: Cell survival of myeloma cell line harboring CRBN or without CRBN treated with cofactors; assay type: cell-based, human; conditions: cofactor alone
Excerpt: as §2

IKZF1 and IKZF3 [7] = test: Western blot of IKZF1 and IKZF3 in OPM2 cells; assay type: cell-based, human; conditions: PX12 20 μM, within 3 hours
Excerpt: as §3

thioredoxin reductase = test: Thioredoxin reductase inhibition
myeloma cells [8] = test: Intracellular H2O2 accumulation in myeloma cells; assay type: cell-based, human
myeloma cells [9] = test: MTT assay of auranofin in myeloma cells; assay type: cell-based, human
Excerpt: as §2

OPM2 cells = test: Apoptosis assay (Annexin V/propidium iodide FACS) in OPM2 cells; assay type: cell-based, human; conditions: lenalidomide 10 μM pretreatment two days, bortezomib 2.5 nM 2 days
Description: Treated cells were harvested and stained for flow cytometry with Annexin V-fluorescein isothiocyanate and propidium iodide (BD Pharmingen). Stained cells were analyzed with a BD LSRII flow cytometer, and the data were analyzed with BD fluorescence-activated cell sorting (FACs) DIVA software.

[10] = tested on: myeloma cell line harboring CRBN and myeloma cell line without CRBN; test: Viability of myeloma cell lines with auranofin and bortezomib; assay type: cell-based, human; conditions: bortezomib in combination with auranofin
PARP = PARP cleavage immunoblot in OPM2-NT and OPM2-shCRBN cells; assay type: cell-based, human; conditions: OPM2 CRBN-positive cells; bortezomib 2.5 nM 2 days
Excerpt: as §3

RPMI-8226 myeloma cells = test: Anti-oxidative capacity by FAD and NAD(P)H autofluorescence flow cytometry; assay type: cell-based, human; conditions: pre-treatment of myeloma cells, then external H2O2
Description: HMCLs cells (1 million cells/1 mL PBS) treated or not treated with 100 μM concentration of H2O2 were immediately analyzed for autofluoresnece of FAD (FITC-A channel) and NAD(P)H (UV Blue-A channel) with multicolor flow cytometry (BD LSRFORTESSA). Flowjo histogram normalization was used to overlay untreated versus treated samples.

[11] = tested on: intracellular peroxidases in HMCLs; test: Intra-cellular peroxidase activity by Amplex Red in HMCLs; assay type: cell-based, human; conditions: for intracellular H2O2 decomposition mediated by peroxidases: different myeloma cell lines, thalidomide 20 μM, lenalidomide 20 μM, pomalidomide 10 μM, 40 to 60 minutes
Description: (§4) After 30 minutes, plates were read for fluorescence at 530 nm excitation and 590 nm emission with plate reader (Biotek Cytation3). For determining intra-cellular peroxidase activity by Amplex Red, cells were washed and mixed with Amplex Red reagent (50 μM) in HBSS buffer and plated 100,000 cells per well into 96 well plate, four wells for each condition. […] The DMSO control included H2O2 (100 μM). […] After specific time periods, the plates were read for fluorescence intensity using plate reader.

Horseradish peroxidase = biological target: T1, Horseradish peroxidase (Armoracia rusticana, UniProt P00433); test: HRP/Amplex Red in-vitro assay; assay type: biochemical; conditions: 10 μM drug, 5 μM H2O2, 30 minutes
T1 sequence (P00433 31-338 limits assumed): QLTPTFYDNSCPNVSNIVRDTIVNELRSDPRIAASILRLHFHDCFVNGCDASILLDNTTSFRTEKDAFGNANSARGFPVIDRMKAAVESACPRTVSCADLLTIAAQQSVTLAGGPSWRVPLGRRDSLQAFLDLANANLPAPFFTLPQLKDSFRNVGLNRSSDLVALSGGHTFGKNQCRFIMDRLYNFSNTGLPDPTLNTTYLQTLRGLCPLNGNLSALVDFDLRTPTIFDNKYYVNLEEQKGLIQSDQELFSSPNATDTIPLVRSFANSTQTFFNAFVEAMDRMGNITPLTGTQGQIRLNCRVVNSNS
Description: as §4

[12] = OCIMY5-Vector (CRBN deficient) cells
[13] = OCIMY-CRBN (CRBN positive) cells

SMILES: O=C([O-])CC([S-])C(=O)[O-].[Au+].[Na+].[Na+] (centres unmarked) [ATM, sodium aurothiomalate]
- cell proliferation (MTT) [1, 12]: did not inhibit cell proliferation
- cell proliferation (MTT) [1, 13]: did not inhibit cell proliferation

SMILES: O=C1O[C@H]([C@@H](O)CO)C(=O)C1=O [DHA, Dehydroascorbic acid]
- myeloma cell proliferation (MTT) (myeloma cells [2]): inhibited myeloma cell proliferation

SMILES: OO [H2O2, hydrogen peroxide]
- IKZF1 and IKZF3 degradation (IKZF1 and IKZF3 [3]): in a CRBN-dependent fashion
- IKZF1 and IKZF3 degradation (IKZF1 and IKZF3 [4]): enhanced IKZF1 and IKZF3 degradation
- sensitivity of cell line (MTT) (RPMI-8226 cells): resistant
- formation of IgL-λ dimers (IgL-λ dimers): increased formation of IgL-λ dimers
- sensitivity of cell line (MTT) (MM.1S cells): hypersensitive
- IKZF1 and IKZF3 degradation (IKZF1 and IKZF3 [5]): degraded IKZF1 and IKZF3 most effectively
- IKZF1 degradation (IKZF1 and IKZF3 [5]; MM.1S, 3 hours of treatment): prominent
- time of peak IKZF1 dimerization after treatment (IKZF1 and IKZF3 [5]; MM.1S, exogenous H2O2 50 μM): 60 min
- IKZF1 dimerization (IKZF1 and IKZF3 [5]; MM.1S, nonreducing conditions, lenalidomide 10 μM or exogenous H2O2 50 μM): induced IKZF1 dimerization

SMILES: NC(=O)C1=CN([C@@H]2O[C@H](COP(=O)(O)OP(=O)(O)OC[C@H]3O[C@@H](n4cnc5c(N)ncnc54)[C@H](O)[C@@H]3O)[C@@H](O)[C@H]2O)C=CC1 [NADH]
- cell survival [6]: induced cell death

SMILES: NC(=O)C1=CN([C@@H]2O[C@H](COP(=O)(O)OP(=O)(O)OC[C@H]3O[C@@H](n4cnc5c(N)ncnc54)[C@H](OP(=O)(O)O)[C@@H]3O)[C@@H](O)[C@H]2O)C=CC1 [NADPH]
- cell survival [6]: induced cell death

SMILES: NC(=O)c1ccc[n+]([C@@H]2O[C@H](COP(=O)([O-])OP(=O)(O)OC[C@H]3O[C@@H](n4cnc5c(N)ncnc54)[C@H](OP(=O)(O)O)[C@@H]3O)[C@@H](O)[C@H]2O)c1 [NADP]
- cell survival [6]: induced cell death

SMILES: NC(=O)c1ccc[n+]([C@@H]2O[C@H](COP(=O)([O-])OP(=O)(O)OC[C@H]3O[C@@H](n4cnc5c(N)ncnc54)[C@H](O)[C@@H]3O)[C@@H](O)[C@H]2O)c1 [NAD]
- cell survival [6]: induced cell death

SMILES: CCC(C)SSc1ncc[nH]1 (centres unmarked) [PX12, 1-methylpropyl 2-imidazolyl disulfide]
- cell proliferation (MTT) [1, 12]: inhibited cell proliferation
- cell proliferation (MTT) [1, 13]: inhibited cell proliferation
- IKZF1 and IKZF3 degradation (IKZF1 and IKZF3 [7]): induced IKZF1 and IKZF3 degradation
- IKZF1 and IKZF3 degradation (IKZF1 and IKZF3 [5]): induced IKZF1 and IKZF3 degradation

SMILES: CC(=O)OC[C@H]1O[C@@H]([S-])[C@H](OC(C)=O)[C@@H](OC(C)=O)[C@@H]1OC(C)=O.CCP(CC)CC.[Au+] [auranofin]
- potency in inhibiting thioredoxin reductase, compared with lenalidomide (thioredoxin reductase): more potent than lenalidomide
- intracellular H2O2 accumulation (myeloma cells [8]): effective at accumulating intracellular H2O2
- CRBN dependence of inhibition of cancer cell proliferation (myeloma cells [9]): irrespective of CRBN level
- potency in inhibiting cancer cell proliferation, compared with lenalidomide (myeloma cells [9]): more potent than lenalidomide
- cancer cell viability (MTT) (myeloma cells [9]; myeloma cells): reducing cancer cell viability

SMILES: CC(C)C[C@H](NC(=O)[C@H](Cc1ccccc1)NC(=O)c1cnccn1)B(O)O [bortezomib]
- bortezomib-induced apoptosis in cells pretreated with lenalidomide vs not pretreated (OPM2 cells): increased sensitivity
- interaction with auranofin (percent viability) [10]: synergy
- bortezomib-induced PARP cleavage after lenalidomide pretreatment (PARP): enhanced

SMILES: O=C(O)CCCC[C@@H]1CCSS1 [lipoic acid]
- anti-oxidative capacity (FADH2 and NAD(P)H oxidation) (RPMI-8226 myeloma cells): decreased myeloma cells anti-oxidative capacity

SMILES: NC(=O)CCCCC1CCSS1 (centres unmarked) [lopoamide]
- anti-oxidative capacity (FADH2 and NAD(P)H oxidation) (RPMI-8226 myeloma cells): decreased myeloma cells anti-oxidative capacity

- intracellular H2O2 decomposition mediated by peroxidases [11]: inhibit intracellular H2O2 decomposition
- decomposition of H2O2 by horseradish peroxidase (Amplex Red to resorufin) (Horseradish peroxidase): inhibited
SMILES: Nc1cccc2c1C(=O)N(C1CCC(=O)NC1=O)C2=O (centres unmarked) [pomalidomide]
- inhibition of intracellular peroxidases compared among IMIDs ([11]; FIG. 1C-E and FIG. 2A): more potentially than thalidomide and lenalidomide

- intracellular H2O2 decomposition mediated by peroxidases [11]: inhibit intracellular H2O2 decomposition
- decomposition of H2O2 by horseradish peroxidase (Amplex Red to resorufin) (Horseradish peroxidase): inhibited
SMILES: O=C1CCC(N2C(=O)c3ccccc3C2=O)C(=O)N1 (centres unmarked) [thalidomide]
